From PubChem BioAssay AID1259407 (Chemical Carcinogenesis Research Information System (CCRIS), 2018)
The source made the active and inactive calls. No rule for the calls is given here.

Test system: CCRIS mutagenicity, Ames/micronucleus/aberration tests
Test: CCRIS mutagenicity studies
Details: Test System: AMES SALMONELLA TYPHIMURIUM
Source text: The CCRIS database contains chemical records with carcinogenicity, mutagenicity, tumor promotion, and tumor inhibition test results. It was developed by the National Cancer Institute (NCI). Data are derived from studies cited in primary journals, current awareness tools, NCI reports, and other sources. Test results have been reviewed by experts in carcinogenesis and mutagenesis.
CCRIS provides historical information from the years 1985 - 2011. It is no longer updated.
This is an archive assay for CCRIS mutagenicity studies.

[1] = Strain/Indicator: TA98, Metabolic Activation: NONE, Method: PREINCUBATION
[2] = Strain/Indicator: TA100, Metabolic Activation: NONE, Method: PREINCUBATION
[3] = Strain/Indicator: TA1535, Metabolic Activation: NONE, Method: PREINCUBATION
[4] = Strain/Indicator: TA1537, Metabolic Activation: NONE, Method: PREINCUBATION

With NS(=O)(=O)c1cc2c(cc1Cl)NC=NS2(=O)=O the mutagenic call (Strain/Indicator: TA97, Metabolic Activation: HAMSTER, LIVER, S-9, AROCLOR 1254 (10 OR 30%), Method: PREINCUBATION) was “inactive; negative”, the mutagenic call (Strain/Indicator: TA97, Metabolic Activation: NONE, Method: PREINCUBATION) was “inactive; negative” and the mutagenic call (Strain/Indicator: TA97, Metabolic Activation: RAT, LIVER, S-9, AROCLOR 1254 (10 OR 30%), Method: PREINCUBATION) was “inactive; negative”. For the same compound, the mutagenic call (Strain/Indicator: TA98, Metabolic Activation: HAMSTER, LIVER, S-9, AROCLOR 1254 (10 OR 30%), Method: PREINCUBATION) was “inactive; negative”, the mutagenic call [1] was “inactive; negative” and the mutagenic call (Strain/Indicator: TA98, Metabolic Activation: RAT, LIVER, S-9, AROCLOR 1254 (10 OR 30%), Method: PREINCUBATION) was “inactive; negative”. For the same compound, the mutagenic call (Strain/Indicator: TA100, Metabolic Activation: HAMSTER, LIVER, S-9, AROCLOR 1254 (10 OR 30%), Method: PREINCUBATION) was “inactive; negative”, the mutagenic call [2] was “inactive; negative” and the mutagenic call (Strain/Indicator: TA100, Metabolic Activation: RAT, LIVER, S-9, AROCLOR 1254 (10 OR 30%), Method: PREINCUBATION) was “inactive; negative”. The mutagenic call (Strain/Indicator: TA1535, Metabolic Activation: HAMSTER, LIVER, S-9, AROCLOR 1254 (10 OR 30%), Method: PREINCUBATION) was “inactive; negative”, the mutagenic call [3] was “inactive; negative” and the mutagenic call (Strain/Indicator: TA1535, Metabolic Activation: RAT, LIVER, S-9, AROCLOR 1254 (10 OR 30%), Method: PREINCUBATION) was “inactive; negative”. The mutagenic call (Strain/Indicator: TA1537, Metabolic Activation: HAMSTER, LIVER, S-9, AROCLOR 1254 (30%), Method: PREINCUBATION) was “inactive; negative”, the mutagenic call [4] was “inactive; negative” and the mutagenic call (Strain/Indicator: TA1537, Metabolic Activation: RAT, LIVER, S-9, AROCLOR 1254 (30%), Method: PREINCUBATION) was “inactive; negative”.
With C=CC(=O)OCC(C)C the mutagenic call (Strain/Indicator: TA98, Metabolic Activation: HAMSTER, LIVER, S-9, AROCLOR 1254 (10%), Method: PREINCUBATION) was “inactive; negative”, the mutagenic call [1] was “inactive; negative” and the mutagenic call (Strain/Indicator: TA98, Metabolic Activation: RAT, LIVER, S-9, AROCLOR 1254 (10%), Method: PREINCUBATION) was “inactive; negative”. The mutagenic call (Strain/Indicator: TA100, Metabolic Activation: HAMSTER, LIVER, S-9, AROCLOR 1254 (10%), Method: PREINCUBATION) was “inactive; negative”, the mutagenic call [2] was “inactive; negative” and the mutagenic call (Strain/Indicator: TA100, Metabolic Activation: RAT, LIVER, S-9, AROCLOR 1254 (10%), Method: PREINCUBATION) was “inactive; negative”. For the same compound, the mutagenic call (Strain/Indicator: TA1535, Metabolic Activation: HAMSTER, LIVER, S-9, AROCLOR 1254 (10%), Method: PREINCUBATION) was “inactive; negative”, the mutagenic call [3] was “inactive; negative” and the mutagenic call (Strain/Indicator: TA1535, Metabolic Activation: RAT, LIVER, S-9, AROCLOR 1254 (10%), Method: PREINCUBATION) was “inactive; negative”. For the same compound, the mutagenic call (Strain/Indicator: TA1537, Metabolic Activation: HAMSTER, LIVER, S-9, AROCLOR 1254 (10%), Method: PREINCUBATION) was “inactive; negative”, the mutagenic call [4] was “inactive; negative” and the mutagenic call (Strain/Indicator: TA1537, Metabolic Activation: RAT, LIVER, S-9, AROCLOR 1254 (10%), Method: PREINCUBATION) was “inactive; negative”.
With O=[N+]([O-])c1ccc(-[n+]2nc(-c3ccccc3)nn2-c2ccc(I)cc2)cc1 the mutagenic call (Strain/Indicator: TA97, Metabolic Activation: NONE, Method: SPOT TEST) was “inactive; negative”, the mutagenic call [1] was “inactive; negative” and the mutagenic call (Strain/Indicator: TA98, Metabolic Activation: NONE, Method: SPOT TEST) was “inactive; negative”. The mutagenic call [2] was “inactive; negative”, the mutagenic call (Strain/Indicator: TA100, Metabolic Activation: NONE, Method: SPOT TEST) was “inactive; negative” and the mutagenic call (Strain/Indicator: TA102, Metabolic Activation: NONE, Method: SPOT TEST) was “inactive; negative”.
With O=C(O)C1=C/C(=N\Nc2ccc(-c3ccc(N=Nc4ccc(N/N=C5\C=CC(=O)C(C(=O)O)=C5)c5cc(S(=O)(=O)O)ccc45)cc3)cc2)C=CC1=O the mutagenic call (Strain/Indicator: TA98, Metabolic Activation: HAMSTER, LIVER, S-9, Method: PREINCUBATION (PRIVAL METHOD)) was “active; positive”.
